Data taken from patent publication US8623870B2, “Pyridazinone derivatives” (Merck Patent GmbH, priority 2009, dated 2014).

Experiments:
Met kinase [1] = molecular target: T1, Met kinase (Homo sapiens, UniProt P08581); assay: Met kinase inhibition, flashplate method (enzyme); format: biochemical; set-up: 6His (N); purchased Upstate 14-526; host or cells: Sf21 insect cells (S. frugiperda), baculovirus
Excerpt: According to the manufacturer's data (Met, active, upstate, catalogue No. 14-526), Met kinase is expressed for the purposes of protein production in insect cells (Sf21; S. frugiperda) and subsequent affinity-chromatographic purification as “N-terminal 6His-tagged” recombinant human protein in a baculovirus expression vector.
The test plates used are 96-well Flashplate® microtitre plates from Perkin Elmer (Cat. No. SMP200). The components of the kinase reaction described below are pipetted into the assay plate. The Met kinase and the substrate poly Ala-Glu-Lys-Tyr, (pAGLT, 6:2:5:1), are incubated for 3 hrs at room temperature with radioactively labelled ^33P-ATP in the presence and absence of test substances in a total volume of 100 μl. The reaction is terminated using 150 μl of a 60 mM EDTA solution. After incubation for a further 30 min at room temperature, the supernatants are filtered off with suction, and the wells are washed three times with 200 μl of 0.9% NaCl solution each time. The measurement of the bound radioactivity is carried out by means of a scintillation measuring instrument (Topcount NXT, Perkin-Elmer).
The full value used is the inhibitor-free kinase reaction. This should be approximately in the range 6000-9000 cpm. The pharmacological zero value used is staurosporin in a final concentration of 0.1 mM. The inhibitory values (IC50) are determined using the RS1_MTS program.
• 30 μl of assay buffer • 10 μl of substance to be tested in assay buffer with 10% of DMSO • 10 μl of ATP (final concentration 1 μM cold, 0.35 μCi of ^33P-ATP) • 50 μl of Met kinase/substrate mixture in assay buffer; • (10 ng of enzyme/well, 50 ng of pAGLT/well)
Assay Buffer: • 50 mM HEPES • 3 mM magnesium chloride • 3 μM sodium orthovanadate • 3 mM manganese(II) chloride • 1 mM dithiothreitol (DTT) • pH=7.5 (to be set using sodium hydroxide)
Stop Solution: • 60 mM Titriplex III (EDTA) • ^33P-ATP: Perkin-Elmer; • Met kinase: Upstate, Cat. No. 14-526, Stock 1 μg/10 μl; spec. activity 954 U/mg; • Poly-Ala-Glu-Lys-Tyr, 6:2:5:1: Sigma Cat. No. P1152 In-vivo Tests
Target sequence in this assay (P08581 974-1390 limits assumed): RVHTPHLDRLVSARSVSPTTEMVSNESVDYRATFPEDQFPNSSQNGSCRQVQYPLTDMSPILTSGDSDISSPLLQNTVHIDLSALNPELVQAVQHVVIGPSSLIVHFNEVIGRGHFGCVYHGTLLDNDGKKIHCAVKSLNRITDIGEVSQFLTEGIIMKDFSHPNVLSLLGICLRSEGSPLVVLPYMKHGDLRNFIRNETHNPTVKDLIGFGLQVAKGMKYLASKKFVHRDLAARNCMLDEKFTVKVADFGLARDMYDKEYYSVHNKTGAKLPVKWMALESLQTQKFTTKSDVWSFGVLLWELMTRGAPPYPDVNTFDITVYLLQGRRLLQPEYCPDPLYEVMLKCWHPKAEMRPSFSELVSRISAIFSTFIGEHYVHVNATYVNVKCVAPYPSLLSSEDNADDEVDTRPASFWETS

Met kinase [2] = molecular target: T1, Met kinase; assay: Met kinase inhibition (cell); format: cell-based
Target sequence in this assay (P08581 25-1390): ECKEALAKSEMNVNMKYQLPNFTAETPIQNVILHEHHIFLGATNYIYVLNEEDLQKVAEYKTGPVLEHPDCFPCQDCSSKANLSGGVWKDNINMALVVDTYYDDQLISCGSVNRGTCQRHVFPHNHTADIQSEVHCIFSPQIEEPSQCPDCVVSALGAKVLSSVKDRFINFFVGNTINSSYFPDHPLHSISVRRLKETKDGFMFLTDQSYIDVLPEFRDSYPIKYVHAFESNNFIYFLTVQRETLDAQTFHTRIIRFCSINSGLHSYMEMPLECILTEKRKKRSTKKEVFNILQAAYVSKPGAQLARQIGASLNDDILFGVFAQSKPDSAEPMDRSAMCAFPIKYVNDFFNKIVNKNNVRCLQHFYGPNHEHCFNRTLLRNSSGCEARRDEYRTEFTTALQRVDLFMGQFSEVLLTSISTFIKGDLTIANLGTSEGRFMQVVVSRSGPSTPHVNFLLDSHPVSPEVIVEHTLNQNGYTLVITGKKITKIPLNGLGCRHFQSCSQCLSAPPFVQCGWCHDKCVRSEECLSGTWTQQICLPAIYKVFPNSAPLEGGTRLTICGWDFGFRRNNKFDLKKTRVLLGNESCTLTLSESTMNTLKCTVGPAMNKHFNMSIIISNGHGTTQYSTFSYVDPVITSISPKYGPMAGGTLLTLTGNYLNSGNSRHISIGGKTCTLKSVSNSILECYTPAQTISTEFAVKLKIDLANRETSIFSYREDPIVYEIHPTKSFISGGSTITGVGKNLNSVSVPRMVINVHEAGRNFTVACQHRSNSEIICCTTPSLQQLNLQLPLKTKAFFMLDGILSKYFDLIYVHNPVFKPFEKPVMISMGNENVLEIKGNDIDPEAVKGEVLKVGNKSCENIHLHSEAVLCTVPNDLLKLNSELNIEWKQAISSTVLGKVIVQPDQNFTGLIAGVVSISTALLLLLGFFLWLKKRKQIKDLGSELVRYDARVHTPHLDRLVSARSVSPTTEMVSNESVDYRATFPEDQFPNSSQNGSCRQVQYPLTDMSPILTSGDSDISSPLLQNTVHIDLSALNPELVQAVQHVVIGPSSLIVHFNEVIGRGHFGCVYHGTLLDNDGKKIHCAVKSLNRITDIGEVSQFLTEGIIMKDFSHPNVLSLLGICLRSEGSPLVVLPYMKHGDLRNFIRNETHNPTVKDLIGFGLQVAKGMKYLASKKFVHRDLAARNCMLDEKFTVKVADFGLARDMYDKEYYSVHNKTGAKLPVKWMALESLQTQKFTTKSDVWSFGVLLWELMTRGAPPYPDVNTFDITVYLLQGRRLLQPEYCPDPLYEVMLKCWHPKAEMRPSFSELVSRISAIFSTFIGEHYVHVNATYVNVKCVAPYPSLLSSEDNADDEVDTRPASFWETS

Compound: Cc1ccc(-c2nc(-c3cccc(Cn4nc(-c5cc(F)cc(F)c5)ccc4=O)c3)no2)cn1 [Compound A10, 6-(3,5-difluorophenyl)-2-{3-[5-(6-methylpyridin-3-yl)-1,2,4-oxadiazol-3-yl]-benzyl}-2H-pyridazin-3-one]
- IC50 (Met kinase [1]): 1 to 100 nM
- IC50 (Met kinase [2]): 1 to 100 nM

Compound: O=c1ccc(-c2cc(F)cc(F)c2)nn1Cc1cccc(-c2noc(-c3ccco3)n2)c1 [Compound A9, 6-(3,5-difluorophenyl)-2-[3-(5-furan-2-yl-1,2,4-oxadiazol-3-yl)benzyl]-2H-pyridazin-3-one]
- IC50 (Met kinase [2]): 100 to 10000 nM

Compound: Cn1cc(-c2nc(-c3cccc(Cn4nc(-c5cc(F)cc(F)c5)ccc4=O)c3)no2)cn1 [Compound A8, 6-(3,5-difluorophenyl)-2-{3-[5-(1-methyl-1H-pyrazol-4-yl)-1,2,4-oxadiazol-3-yl]benzyl}-2H-pyridazin-3-one]
- IC50 (Met kinase [1]): 1 to 100 nM
- IC50 (Met kinase [2]): 1 to 100 nM

Compound: O=c1ccc(-c2cccc(F)c2)nn1Cc1cccc(-c2ncc(-c3cnn(C4CCNCC4)c3)s2)c1 [Compound A2, 6-(3-fluorophenyl)-2-{3-[5-(1-piperidin-4-yl-1H-pyrazol-4-yl)thiazol-2-yl]benzyl}-2H-pyridazin-3-one]
- IC50 (Met kinase [1]): 1 to 100 nM
- IC50 (Met kinase [2]): 1 to 100 nM

Compound: O=c1ccc(-c2cc(F)cc(F)c2)nn1Cc1cccc(-c2ncc(-c3cnn(C4CCNCC4)c3)s2)c1 [Compound A1, 6-(3,5-difluorophenyl)-2-{3-[5-(1-piperidin-4-yl-1H-pyrazol-4-yl)thiazol-2-yl]benzyl}-2H-pyridazin-3-one]
- IC50 (Met kinase [1]): 1 to 100 nM
- IC50 (Met kinase [2]): 1 to 100 nM

Compound: O=c1ccc(-c2cc(F)cc(F)c2)nn1Cc1cccc(-c2ncc(-c3cnn(C4CCNCC4)c3)o2)c1 [Compound A6, 6-(3,5-difluorophenyl)-2-{3-[5-(1-piperidin-4-yl-1H-pyrazol-4-yl)oxazol-2-yl]benzyl}-2H-pyridazin-3-one]
- IC50 (Met kinase [1]): 1 to 100 nM
- IC50 (Met kinase [2]): 1 to 100 nM
